According to patent publication US12234254B2, “Methods for producing crystalline L-glufosinate ammonium monohydrate” (BASF SE, priority 2019, dated 2025):

Columns and labels:
[1] = Hygroscopicity of solid L-glufosinate forms in contact with ambient air; type: physicochemical; conditions: contact with ambient air in the laboratory; compared with non-crystalline forms
Text: L-glufosinate produced in a stable solid form is highly desirable for commercial manufacture. Some forms of solid L-glufosinate are hygroscopic, and therefore extra measures must be taken to eliminate contact between these solid L-glufosinate forms and water vapor. […] Several crystalline forms of L-glufosinate are disclosed in WO 2019/018406, and two of these forms (indicated as “Form A” and “Form B”) have now been identified as monohydrate crystals of L-glufosinate ammonium.

[2] = system: glutamine synthetase enzyme in plants; conditions: leads to plant death; cited from earlier work
plants = conditions: Ruhland et al. (2002); cited from earlier work
[3] = Particle size measurement (Dv90, volumetric distribution); type: physicochemical
Text: The size range of crystalline L-glufosinate ammonium monohydrate particles obtained by using the methods provided herein is convenient for use in formulations. In some embodiments, the crystals are mixed with water and other formulation ingredients to form an herbicidal product. In some embodiments, 90% of the crystalline L-glufosinate ammonium particles are less than about 350 microns as determined by volumetric distribution measurement basis (i.e., “Dv90”). For example, the Dv90 of the particles can be less than about 350 microns or less than about 300 microns or less than about 250 microns or less than about 200 microns or less than about 150 microns or less than about 125 microns or less than about 100 microns or less than about 75 microns or less than about 50 microns or less than about 25 microns. […]
L-glufosinate ammonium starting material (50 g, 77% total L-glufosinate ammonium, 7.3% ammonium glutamate) was added to 35.0 g of 45:55 (w:w) methanol:water. […] The crystals were analyzed by X-ray powder diffraction and the resulting pattern was consistent with that of L-glufosinate ammonium monohydrate Form B, however several peaks consistent with L-glufosinate ammonium monohydrate Form A were present.

[4] = DAAO enzyme kinetics assay (HRP/TBHBA/4-AAP dye, Michaelis Menten, Vmax); type: biochemical; conditions: 30° C., 460 nm, measurement at 15 minutes, final DAAO 5 μg/mL, racemic glufosinate substrate, pH 8.0 potassium phosphate buffer
Method: The following dye stock solutions were prepared: a 20 mg/mL stock solution of 2,4,6-tribromo-3-hydroxybenzoic acid (TBHBA) in DMSO; and a 100 mg/mL stock solution of 4-aminoantipyrine (4-AAP) in water. The following enzyme stock solution was prepared: a 1 mg/mL stock solution of horseradish peroxide (HRP) type 6 in a pH 8.0 potassium phosphate buffer. The following substrate stock solution was prepared: varying concentrations of racemic glufosinate in a pH 8.0 potassium phosphate buffer such that the initial reaction concentrations of racemic glufosinate were 0, 1, 10, 100, 250, and 500 nM. DAAO enzymes were made in E. coli which were lysed and the cell free extracts freeze dried. Enzyme amounts in the cell free extracts were quantified using SDS-PAGE and staining by Coomassie Blue.
Mix A is a combination of the substrate and HRP enzyme. Solutions were prepared for each substrate concentration to be assayed using reaction buffer. The solutions were two times the final substrate concentration and 0.2 mg/mL for the HRP solution.
Mix B is a dye mixture. To 5 mL of reaction buffer was added 120 μL of TBHBA solution and 400 μL of 4-AAP solution.
Mix C is an enzyme mixture. A 0.02 mg/mL solution of DAAO in reaction buffer was prepared. […]
The enzyme kinetics were measured as described above, plotted on a Michaelis Menten graph, and used to calculate Vmax.

In the case of `CP(=O)(O)CC[C@H](N)C(=O)O` [amorphous L-glufosinate solids, L-glufosinate], the hygroscopicity [1] is reported as “particularly hygroscopic”.

For `CP(=O)(O)CC[C@H](N)C(=O)O` [L-glufosinate], the “inhibition of glutamine synthetase enzyme” value [2] is listed as “inhibits”.

For `CP(=O)(O)CC[C@H](N)C(=O)O.N.O` [Form A, L-glufosinate ammonium monohydrate], the hygroscopicity [1] was “low hygroscopicity”.

With `CP(=O)(O)CC[C@H](N)C(=O)O` [crystalline L-glufosinate P free acid, L-glufosinate P free acid] the hygroscopicity [1] was “significantly lower”.

For `CP(=O)(O)CC[C@@H](N)C(=O)O` [D-glufosinate], the herbicidal activity (plants) is given as “essentially no herbicidal activity”.

Molecule `CP(=O)(O)CC[C@H](N)C(=O)O.N.O` [L-glufosinate ammonium monohydrate] has a Dv90 particle size ([3]; Example 9, crystallized with 0.4 M ammonium hydroxide) of 70.7 microns and a Dv90 particle size ([3]; Example 10, crystallized without ammonium hydroxide) of 102 microns.

B1: Mut846: variant DAAO enzyme, sequence provided in SEQ ID NO: 2 (protein)
chain: MASPSNKQIVVLGAGVIGLTTAVKIQEQRGYQVTIIAEILPSDPKSIRYTSHWAGAHHVSLAGEDKLQARVDQETFGVMWEMSAPGGEAEGCFLRQKQVEYYCDKQADPHPLEHMPDFRRLDENSLIPNTVAGIGFTTLTIDTPIYLNYLLSRFLARGGAIVRGSVQHISQVVDGGARVFTGSKSAGVPVDAVIVCAGIGARFLGGVEDKDVYPIRGQTVLLRAPWIRFGRTMSSKDGLYTYIIPRRSGDVIVGGIKVPNDWYPTPRPETTQDILKRGLALCPELAPQSIRDQREPTVDDLRPLVIEEGCGLRPGRKGGIRLEVEWYAKTDGQAPKVPIVHNYGHGGAGFQASWGSASVALELLEKALAQARLAM
modifications: Rhodosporidium toruloides
With B1 the Vmax [4] was 5.54 µmol/min/mg.
